Legend:
[1] = biological target: human α5β3γ2 receptors (α5-GABAA receptor) (Homo sapiens (Human), UniProt P18507+P31644); assay: 3H-flunitrazepam competition binding, human α5β3γ2 GABAA receptor; conditions: HEK293 cell membranes, 1 nM 3H-flunitrazepam; read-out: α5-GABAAR Ki
Procedure, shortened: (§1)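 HEK293 membranes stably expressing each human receptor subtype ([…]) competed against 1 nM 3H-flunitrazepam in Tris buffer, 1 h at room temperature; flumazenil defined the low-signal control. Eight-point 4-fold test-compound dilutions; GF/C filtration and scintillation counting gave IC50 by curve fitting, converted to Ki.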

[2] = biological target: α5-GABAA receptor (α5, β3, γ2 subunits) (Homo sapiens (Human), UniProt P18507+P31644); assay: Whole cell patch clamp, inverse agonist efficacy in HEK293 cells expressing α5-GABAA receptor; format: cell-based; conditions: HEK293, drug 100 nM, GABA 0.05 μM, −60 mV; read-out: Compound inverse agonist efficacy %
Procedure, shortened: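 Stable HEK293 line co-expressing human α5, β3, γ2 subunits; whole-cell patch clamp at −60 mV, inward current evoked by 0.05 μM GABA, then compound at 100 nM in GABA solution applied. Effect derived from leak, pre- and post-drug GABA currents.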

human α3β3γ2 receptors = human α3β3γ2 receptors (Homo sapiens (Human), UniProt P18507+P34903); assay: 3H-flunitrazepam competition binding, human α3β3γ2 GABAA receptor; conditions: HEK293 cell membranes, 1 nM 3H-flunitrazepam; read-out: Ki α3
Procedure, shortened: as §1

## Cc1nnn(-c2ccc(C(F)F)cc2)c1COc1ccc(N2CC(=O)NC(C)C2)nn1 (stereo not drawn) [Example 6, 4-(6-((1-(4-(Difluoromethyl)phenyl)-4-methyl-1H-1,2,3-triazol-5-yl)methoxy)pyridazin-3-yl)-6-methylpiperazin-2-one]
[1]
  Ki: 0.91 nM
[2]
  inhibition at 0.1 µM: 42.5%
Human α3β3γ2 receptors
  Ki: 14.1 nM
